What was measured:
cPLA2 = biological target: T1, cPLA2 (Homo sapiens, UniProt P47712); test: Coumarin assay (hydrolysis of 7-hydroxycoumarinyl 6-heptenoate); assay type: biochemical; conditions: 60 μM 7-hydroxycoumarinyl 6-heptenoate, 4 μg cPLA2, pH 7.5
T1 sequence (P47712 1-749): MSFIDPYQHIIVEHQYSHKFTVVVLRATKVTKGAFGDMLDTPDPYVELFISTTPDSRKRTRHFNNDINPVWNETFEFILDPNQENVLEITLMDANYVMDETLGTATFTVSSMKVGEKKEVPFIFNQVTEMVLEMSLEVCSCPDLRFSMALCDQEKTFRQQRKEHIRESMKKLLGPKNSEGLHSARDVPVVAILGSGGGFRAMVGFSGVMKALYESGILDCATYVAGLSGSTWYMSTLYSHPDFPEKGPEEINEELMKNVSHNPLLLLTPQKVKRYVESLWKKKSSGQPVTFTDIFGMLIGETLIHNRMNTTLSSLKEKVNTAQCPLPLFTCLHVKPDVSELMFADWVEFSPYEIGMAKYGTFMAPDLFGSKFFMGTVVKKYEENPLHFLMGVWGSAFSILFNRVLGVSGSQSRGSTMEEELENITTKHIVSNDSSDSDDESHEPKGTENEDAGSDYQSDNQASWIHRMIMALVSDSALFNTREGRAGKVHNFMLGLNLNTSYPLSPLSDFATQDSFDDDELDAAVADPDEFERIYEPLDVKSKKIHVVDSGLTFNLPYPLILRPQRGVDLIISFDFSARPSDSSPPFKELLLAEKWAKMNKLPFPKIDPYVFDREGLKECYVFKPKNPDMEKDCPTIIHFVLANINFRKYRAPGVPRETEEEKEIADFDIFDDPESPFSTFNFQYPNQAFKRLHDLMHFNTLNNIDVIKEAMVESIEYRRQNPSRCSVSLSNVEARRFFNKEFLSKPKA
Experimental: Inhibitors were mixed with 200 μL assay buffer (80 mM Hepes, pH 7.5, 1 mM EDTA) containing 60 μM 7-hydroxycoumarinyl 6-heptenoate. The reaction was initiated by adding 4 μg cPLA2 in 50 μL assay buffer. Hydrolysis of the 7-hydroxycounarimyl 6-heptenoate ester was monitored in a fluorometer by exciting at 360 nm and monitoring emission at 460 nm. Enzyme activity is proportional to the increase in emission at 460 nm per minute. In the presence of a cPLA2 inhibitor, the rate of increase is less.

[1] = system: Human platelet aggregation; test: Platelet Function Analyzer (PFA-100) study, whole human blood in vitro; assay type: cell-based; conditions: for prolongation of PFA-100 closure time: Collagen/Epinephrine cartridges, 10 minutes incubation, DMSO vehicle 125±13.9 seconds
Experimental: Platelet Function Analyzer (PFA-100®) Study
Human platelet aggregation was also studied using the platelet function analyzer (PFA-100®). […] Tubes were inverted 5 times and the blood was transferred to 15 ml polypropylene conical tubes. […] The manufacturers protocol was followed for the PFA-100 using Collagen/Epinephrine cartridges (0.5% DMSO alone in whole blood gave closure times of 125±13.9 seconds). Maximum closure time is 300 seconds, as set by the manufacturer. […] The blood from two mice was pooled to obtain enough blood (800 μl minimum) to conduct each assay.

platelet aggregation = test: PFA-100 ex vivo platelet aggregation of chow dosed mice; assay type: in vivo; conditions: ApoE knockout mice, 3.3 mg/g chow for 2 days; control 142±16, p<0.02
[2] = Exposure after chow dosing in mice; conditions: mouse, in vivo, oral; ApoE knockout mice, chow diet supplemented at 3.3 mg/g chow

| Compound | IC50 (cPLA2) [nM] | other results |
| --- | --- | --- |
| O=C(O)c1ccc(OCCc2c(CCNS(=O)(=O)Cc3cnc(Cl)c(Cl)c3)n(C(c3ccccc3)c3ccccc3)c3ccc(Cl)cc23)cc1 [Example 76] | 400 |  |
| Cc1cccc(C)c1CS(=O)(=O)NCCc1c(CCCc2ccc(C(=O)O)cc2)c2cc(Cl)ccc2n1C(c1ccccc1)c1ccccc1 [Example 52, 4-(3-[1-benzhydryl-5-chloro-2-(2-{[(2,6-dimethylbenzyl)-sulfonyl]amino}ethyl)-1H-indol-3-yl]propyl}benzoic acid] |  | prolongation of PFA-100 closure time [1]: able to prolong the closure time to varying extents; relative potency in PFA-100 closure time ([1]; compared: Examples 44, 52 and aspirin): most potent compound |
| O=C(O)c1ccc(OCCc2c(CCNS(=O)(=O)Cc3c(Cl)cccc3Cl)n(C(c3ccccc3)c3ccccc3)c3ccc(Cl)cc23)cc1 [Example 73, 4-{2-[1-Benzhydryl-5-chloro-2-(2-{[(2-dichlorobenzyl)sulfonyl]amino}ethyl)-1H-indol-3-yl]ethoxy}benzoic acid] | 300 |  |
| 4-[2-(1-benzhydryl-5-chloro-2-{2-[({2-[(3R,5S)-3,5-dimethylmorpholin-4-yl]ethyl}sulfonyl)amino]ethyl}-1H-indol-3-yl)ethoxy]benzoic acid [Example 250] | 2100 |  |
| O=C(O)c1ccc(OCCc2c(CCNS(=O)(=O)Cc3ccc(Cl)c(Cl)c3)n(C(c3ccccc3)c3ccccc3)c3ccc(Cl)cc23)cc1F [Example 296, 4-{2-[1-benzhydryl-5-chloro-2-(2-{[(3,4-dichlorobenzyl)sulfonyl]amino}ethyl)-1H-indol-3-yl]ethoxy}-2-fluorobenzoic acid] |  | melting point: 117 to 119 °C |
| CC(=O)Oc1ccccc1C(=O)O [aspirin, reference compound] |  | prolongation of PFA-100 closure time [1]: able to prolong the closure time to varying extents |
| 4-{2-[1-benzhydryl-5-chloro-2-(2-{[(2,6-dimethylbenzyl)sulfonyl]amino}ethyl)-1H-indol-3-yl]ethoxy}benzoic acid [Example 279] | 160 |  |
| 2-{2-[1-Benzhydryl-5-chloro-2-(2-phenylmethanesulfonyl-amino-ethyl)-1H-indol-3-yl]-ethoxy}-benzoic acid [Example 283] | 500 |  |
| O=C(O)c1ccc(CCCc2c(CCNS(=O)(=O)Cc3ccc(Cl)c(Cl)c3)n(C(c3ccccc3)c3ccccc3)c3ccc(Cl)cc23)cc1 [Example 44, 4-{3-[1-benzhydryl-5-chloro-2-(2-{[(3,4-dichlorobenzyl)sulfonyl]amino}ethyl)-1H-indol-3-yl]propyl}benzoic acid] |  | closure time of the PFA-100, ex vivo (platelet aggregation): 194 ± 49 s; Cmax [2]: ~500 ng/mL |
| CC(C)(Cc1ccc(S(=O)(=O)CCc2c(CCNS(=O)(=O)Cc3ccc(Cl)c(Cl)c3)n(C(c3ccccc3)c3ccccc3)c3ccc(Cl)cc23)cc1)C(=O)O [Example 298, 3-[4-({2-[1-benzhydryl-5-chloro-2-(2-{[(3,4-dichlorobenzyl)sulfonyl]amino}ethyl)-1H-indol-3-yl]ethyl}sulfonyl)phenyl]-2,2-dimethylpropanoic acid] |  | melting point: 207 to 208 °C |
| O=C(O)c1ccc(OCCc2c(CCNS(=O)(=O)CCN3CC4CC3CO4)n(C(c3ccccc3)c3ccccc3)c3ccc(Cl)cc23)cc1 (stereo not shown) [Example 251, 4-(2-{1-benzhydryl-5-chloro-2-[2-({[2-(2-oxa-5-azabicyclo[2.2.1]hept-5-yl)ethyl]sulfonyl}amino)ethyl]-1H-indol-3-yl}ethoxy)benzoic acid] | 1500 |  |
| O=C(O)c1ccc(OCCc2c(CCNS(=O)(=O)Cc3ccccc3Cl)n(C(c3ccccc3)c3ccccc3)c3ccc(Cl)cc23)cc1F [Example 297, 4-{2-[1-benzhydryl-5-chloro-2-(2-{[(2-chlorobenzyl)sulfonyl]amino}ethyl)-1H-indol-3-yl]ethoxy}-2-fluorobenzoic acid] |  | melting point: 132 to 135 °C |
| NCc1ccccc1S(=O)(=O)NCCc1c(CCCc2ccc(C(=O)O)cc2)c2cc(Cl)ccc2n1C(c1ccccc1)c1ccccc1 [Example 156, 4-(3-{2-[2-({[2-(aminomethyl)phenyl]sulfonyl}amino)ethyl]-1-benzhydryl-5-chloro-1H-indol-3-yl}propyl)benzoic acid] | 160 |  |
| O=C(O)CCc1ccc(S(=O)(=O)CCc2c(CCNS(=O)(=O)Cc3ccccc3Cl)n(C(c3ccccc3)c3ccccc3)c3ccc(Cl)cc23)cc1 [Example 129, 3-[4-({2-[1-Benzhydryl-5-chloro-2-(2-{[(2-chloro-benzyl)sulfonyl]amino}ethyl)-1H-indol-3-yl]ethyl}sulfonyl)phenyl]propanoic acid] | 130 |  |

— patent publication US20080009485A1, “Methods for the use of inhibitors of cytosolic phospholipase A2 in the treatment of thrombosis” (Wyeth, priority 2006, published 2008)
